In ChEMBL document CHEMBL3885861, “Open TG-GATES”:

Species: Rattus norvegicus
Assay: Open TG-GATES - Regimen: Single
Assay type: toxicity, organism-based, Sprague-Dawley
Set-up: regimen Single, gender Male, age 6 weeks
Settings: in vivo, po, route gavage; for TG / TP / gamma-GTP / ALT / AST / CRE / Ca / Cl / DBIL / GLC / K / LDH / Na / PL / RALB / TBIL / TC / ALP: tissue Plasma; for APTT / Bas / Eos / Fbg / Hb / Ht / Lym / MCHC / MCV / Mono / PT / Plat / RBC / WBC: tissue Blood; for KIDNEY_L / KIDNEY_R / KIDNEY_TOTAL: tissue Kidney; for LIVER: tissue Liver
[1] = 0 mg/kg, 24 h, dose level Control

**Q.** What does the source list for COc1ccc([C@@H]2Sc3ccccc3N(CCN(C)C)C(=O)[C@@H]2OC(C)=O)cc1 [DILTIAZEM]?
**A.** TG [1]: 84.2 mg/dL; TP [1]: 5.4 g/dL; gamma-GTP [1]: 1 IU/L; TERMINAL_BW (80 mg/kg, 3 h, dose level Low): 186.4 g; APTT (80 mg/kg, 3 h, dose level Low): 17.7 s; Bas (80 mg/kg, 3 h, dose level Low): 0.4%; Eos (80 mg/kg, 3 h, dose level Low): 0.2%; Fbg (80 mg/kg, 3 h, dose level Low): 282.2 mg/dL; Hb (80 mg/kg, 3 h, dose level Low): 12.8 g/dL; Ht (80 mg/kg, 3 h, dose level Low): 40%; Lym (80 mg/kg, 3 h, dose level Low): 70.8%; MCHC (80 mg/kg, 3 h, dose level Low): 32.1%; MCV (80 mg/kg, 3 h, dose level Low): 66.5 fL; Mono (80 mg/kg, 3 h, dose level Low): 3.4%; PT (80 mg/kg, 3 h, dose level Low): 14.7 s; Plat (80 mg/kg, 3 h, dose level Low): 124.6 x10_4/uL; RBC (80 mg/kg, 3 h, dose level Low): 601.8 x10_4/ul; WBC (80 mg/kg, 3 h, dose level Low): 115.4 x10_2/uL; KIDNEY_L (80 mg/kg, 3 h, dose level Low): 0.9 g; KIDNEY_R (80 mg/kg, 3 h, dose level Low): 0.8 g; KIDNEY_TOTAL (80 mg/kg, 3 h, dose level Low): 1.7 g; LIVER (80 mg/kg, 3 h, dose level Low): 8.4 g; ALT (80 mg/kg, 3 h, dose level Low): 50.8 IU/L; AST (80 mg/kg, 3 h, dose level Low): 85.6 IU/L; CRE (80 mg/kg, 3 h, dose level Low): 0.2 mg/dL; Ca (80 mg/kg, 3 h, dose level Low): 10.8 mg/dL; Cl (80 mg/kg, 3 h, dose level Low): 106.6 meq/L; DBIL (80 mg/kg, 3 h, dose level Low): 0.014 mg/dL; GLC (80 mg/kg, 3 h, dose level Low): 183.4 mg/dL; K (80 mg/kg, 3 h, dose level Low): 4.5 meq/L; LDH (80 mg/kg, 3 h, dose level Low): 74.8 IU/L; Na (80 mg/kg, 3 h, dose level Low): 142.2 meq/L; PL (80 mg/kg, 3 h, dose level Low): 134.8 mg/dL; RALB (80 mg/kg, 3 h, dose level Low): 2.5 g/dL; TBIL (80 mg/kg, 3 h, dose level Low): 0.032 mg/dL; TC (80 mg/kg, 3 h, dose level Low): 71.8 mg/dL; TG (80 mg/kg, 3 h, dose level Low): 60.2 mg/dL; TP (80 mg/kg, 3 h, dose level Low): 5.1 g/dL; gamma-GTP (80 mg/kg, 3 h, dose level Low): 1.2 IU/L; TERMINAL_BW (80 mg/kg, 6 h, dose level Low): 182.6 g; APTT (80 mg/kg, 6 h, dose level Low): 17 s; Bas (80 mg/kg, 6 h, dose level Low): 0%; Eos (80 mg/kg, 6 h, dose level Low): 0.8%; Fbg (80 mg/kg, 6 h, dose level Low): 314.8 mg/dL; Ht (80 mg/kg, 6 h, dose level Low): 40.5%; Lym (80 mg/kg, 6 h, dose level Low): 71.2%; MCHC (80 mg/kg, 6 h, dose level Low): 32.4%; MCV (80 mg/kg, 6 h, dose level Low): 67 fL; Mono (80 mg/kg, 6 h, dose level Low): 4.2%; PT (80 mg/kg, 6 h, dose level Low): 14.7 s; Plat (80 mg/kg, 6 h, dose level Low): 131.5 x10_4/uL; RBC (80 mg/kg, 6 h, dose level Low): 606 x10_4/ul; WBC (80 mg/kg, 6 h, dose level Low): 91.6 x10_2/uL; KIDNEY_L (80 mg/kg, 6 h, dose level Low): 0.8 g; KIDNEY_R (80 mg/kg, 6 h, dose level Low): 0.8 g; KIDNEY_TOTAL (80 mg/kg, 6 h, dose level Low): 1.6 g; LIVER (80 mg/kg, 6 h, dose level Low): 7.9 g; ALT (80 mg/kg, 6 h, dose level Low): 42.4 IU/L; AST (80 mg/kg, 6 h, dose level Low): 72.8 IU/L; CRE (80 mg/kg, 6 h, dose level Low): 0.2 mg/dL; Ca (80 mg/kg, 6 h, dose level Low): 11.1 mg/dL; Cl (80 mg/kg, 6 h, dose level Low): 106.8 meq/L; DBIL (80 mg/kg, 6 h, dose level Low): 0.014 mg/dL; GLC (80 mg/kg, 6 h, dose level Low): 176.8 mg/dL; K (80 mg/kg, 6 h, dose level Low): 4.1 meq/L; LDH (80 mg/kg, 6 h, dose level Low): 54 IU/L; Na (80 mg/kg, 6 h, dose level Low): 143.8 meq/L; PL (80 mg/kg, 6 h, dose level Low): 137.4 mg/dL; RALB (80 mg/kg, 6 h, dose level Low): 2.5 g/dL; TBIL (80 mg/kg, 6 h, dose level Low): 0.034 mg/dL; TC (80 mg/kg, 6 h, dose level Low): 79 mg/dL; TG (80 mg/kg, 6 h, dose level Low): 33.4 mg/dL; TP (80 mg/kg, 6 h, dose level Low): 5.3 g/dL; gamma-GTP (80 mg/kg, 6 h, dose level Low): 1 IU/L; TERMINAL_BW (80 mg/kg, 9 h, dose level Low): 181.8 g; Bas (80 mg/kg, 9 h, dose level Low): 0%; Eos (80 mg/kg, 9 h, dose level Low): 0.8%; Fbg (80 mg/kg, 9 h, dose level Low): 300.8 mg/dL; Hb (80 mg/kg, 9 h, dose level Low): 12.9 g/dL; Ht (80 mg/kg, 9 h, dose level Low): 40.2%; Lym (80 mg/kg, 9 h, dose level Low): 79.4%; MCHC (80 mg/kg, 9 h, dose level Low): 32.1%; MCV (80 mg/kg, 9 h, dose level Low): 66.7 fL; Mono (80 mg/kg, 9 h, dose level Low): 3%; PT (80 mg/kg, 9 h, dose level Low): 15.2 s; Plat (80 mg/kg, 9 h, dose level Low): 116.7 x10_4/uL; RBC (80 mg/kg, 9 h, dose level Low): 603.2 x10_4/ul; WBC (80 mg/kg, 9 h, dose level Low): 69.7 x10_2/uL; KIDNEY_L (80 mg/kg, 9 h, dose level Low): 0.9 g; KIDNEY_R (80 mg/kg, 9 h, dose level Low): 0.9 g; KIDNEY_TOTAL (80 mg/kg, 9 h, dose level Low): 1.7 g; LIVER (80 mg/kg, 9 h, dose level Low): 7.3 g; ALP (80 mg/kg, 9 h, dose level Low): 1382 IU/L; ALT (80 mg/kg, 9 h, dose level Low): 44 IU/L; AST (80 mg/kg, 9 h, dose level Low): 74.8 IU/L; CRE (80 mg/kg, 9 h, dose level Low): 0.1 mg/dL; Ca (80 mg/kg, 9 h, dose level Low): 10.7 mg/dL; Cl (80 mg/kg, 9 h, dose level Low): 105.8 meq/L; DBIL (80 mg/kg, 9 h, dose level Low): 0.016 mg/dL; GLC (80 mg/kg, 9 h, dose level Low): 176.8 mg/dL; K (80 mg/kg, 9 h, dose level Low): 4.1 meq/L; LDH (80 mg/kg, 9 h, dose level Low): 59.6 IU/L; Na (80 mg/kg, 9 h, dose level Low): 142 meq/L; PL (80 mg/kg, 9 h, dose level Low): 129.4 mg/dL; RALB (80 mg/kg, 9 h, dose level Low): 2.5 g/dL; TBIL (80 mg/kg, 9 h, dose level Low): 0.032 mg/dL; TC (80 mg/kg, 9 h, dose level Low): 69 mg/dL; TG (80 mg/kg, 9 h, dose level Low): 55.8 mg/dL; TP (80 mg/kg, 9 h, dose level Low): 5.1 g/dL; gamma-GTP (80 mg/kg, 9 h, dose level Low): 1 IU/L; TERMINAL_BW (80 mg/kg, 24 h, dose level Low): 195.1 g; Bas (80 mg/kg, 24 h, dose level Low): 0%; Eos (80 mg/kg, 24 h, dose level Low): 1%; Fbg (80 mg/kg, 24 h, dose level Low): 257 mg/dL; Hb (80 mg/kg, 24 h, dose level Low): 13.3 g/dL; Ht (80 mg/kg, 24 h, dose level Low): 40.6%; Lym (80 mg/kg, 24 h, dose level Low): 75%; MCHC (80 mg/kg, 24 h, dose level Low): 32.8%; MCV (80 mg/kg, 24 h, dose level Low): 67 fL; Mono (80 mg/kg, 24 h, dose level Low): 3.2%; PT (80 mg/kg, 24 h, dose level Low): 14.5 s; Plat (80 mg/kg, 24 h, dose level Low): 121.8 x10_4/uL; RBC (80 mg/kg, 24 h, dose level Low): 606 x10_4/ul; WBC (80 mg/kg, 24 h, dose level Low): 83.3 x10_2/uL; KIDNEY_L (80 mg/kg, 24 h, dose level Low): 0.9 g; KIDNEY_R (80 mg/kg, 24 h, dose level Low): 0.9 g; KIDNEY_TOTAL (80 mg/kg, 24 h, dose level Low): 1.7 g; LIVER (80 mg/kg, 24 h, dose level Low): 9.3 g; ALP (80 mg/kg, 24 h, dose level Low): 1732.2 IU/L; ALT (80 mg/kg, 24 h, dose level Low): 49 IU/L; AST (80 mg/kg, 24 h, dose level Low): 77.4 IU/L; CRE (80 mg/kg, 24 h, dose level Low): 0.2 mg/dL; Ca (80 mg/kg, 24 h, dose level Low): 11.2 mg/dL; Cl (80 mg/kg, 24 h, dose level Low): 106.8 meq/L; DBIL (80 mg/kg, 24 h, dose level Low): 0.016 mg/dL; GLC (80 mg/kg, 24 h, dose level Low): 187.4 mg/dL; K (80 mg/kg, 24 h, dose level Low): 4.3 meq/L; LDH (80 mg/kg, 24 h, dose level Low): 82 IU/L; Na (80 mg/kg, 24 h, dose level Low): 144.2 meq/L; PL (80 mg/kg, 24 h, dose level Low): 146.4 mg/dL; RALB (80 mg/kg, 24 h, dose level Low): 2.6 g/dL; TBIL (80 mg/kg, 24 h, dose level Low): 0.032 mg/dL
